Each structure is given as a SMILES string. Structures can show the parent of a compound that is named as a salt.

These results are taken from patent US9556200B2, “Tricyclic compound” (TAKEDA PHARMACEUTICAL COMPANY LIMITED, priority 2012, dated 2017).

For the experiment, the target named is serotonin 5-HT2C receptor (VSV type isoform, stably expressed in CHO cells) (Homo sapiens, UniProt P28335, I156V/I160V/N158S). The experiment is described as follows: cell-based. Particulars: read-out: ratio (%) relative to maximum response by 5-HT (10 μM).
Chain of serotonin 5-HT2C receptor (VSV type isoform, stably expressed in CHO cells) (P28335 33-458 I156V/N158S/I160V limits assumed): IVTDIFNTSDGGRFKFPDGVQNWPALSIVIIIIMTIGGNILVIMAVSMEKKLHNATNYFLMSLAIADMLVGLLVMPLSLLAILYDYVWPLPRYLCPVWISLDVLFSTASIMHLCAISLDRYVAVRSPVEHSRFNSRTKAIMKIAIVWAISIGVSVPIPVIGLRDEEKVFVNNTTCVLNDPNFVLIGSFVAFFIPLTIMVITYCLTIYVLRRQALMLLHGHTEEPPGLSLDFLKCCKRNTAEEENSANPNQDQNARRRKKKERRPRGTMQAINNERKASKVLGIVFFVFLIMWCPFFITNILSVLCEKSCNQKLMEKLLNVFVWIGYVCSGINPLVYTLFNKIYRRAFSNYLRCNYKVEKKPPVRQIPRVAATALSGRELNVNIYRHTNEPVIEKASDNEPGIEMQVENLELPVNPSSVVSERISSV
For `c1cc2c3c(c[nH]c3c1)CNCC2` [Example 1, 3,4,5,6-tetrahydro-1H-azepino[3,4,5-cd]indole hydrochloride], the Emax was 104%.

As for `c1cc2c3c(c1)NCC3CNCC2` (centres unmarked) [Example 2, 2,2a,3,4,5,6-hexahydro-1H-azepino[3,4,5-cd]indole dihydrochloride], the Emax worked out at 107%. `Cn1cc2c3c(cccc31)CCNC2` [Example 3, 1-methyl-3,4,5,6-tetrahydro-1H-azepino[3,4,5-cd]indole]: the Emax amounted to 106%. Same read-out and setting: with `CN1CC2CNCCc3cccc1c32` (centres unmarked) [Example 4, 1-methyl-2,2a,3,4,5,6-hexahydro-1H-azepino[3,4,5-cd]indole hydrochloride] the figure was 100%; with `CN1CC2CNCCc3ccc(Cl)c1c32` (centres unmarked) [Example 5, 9-chloro-1-methyl-2,2a,3,4,5,6-hexahydro-1H-azepino[3,4,5-cd]indole hydrochloride], 108%; with `CN1CC2CNCCc3c(Cl)ccc1c32` (centres unmarked) [Example 6, 7-chloro-1-methyl-2,2a,3,4,5,6-hexahydro-1H-azepino[3,4,5-cd]indole hydrochloride], 98%.

For `CN1CC2CNCCc3c(Cl)cc(Cl)c1c32` (centres unmarked) [Example 7, 7,9-dichloro-1-methyl-2,2a,3,4,5,6-hexahydro-1H-azepino[3,4,5-cd]indole], the Emax came out at 97%. For the compound `CN1C[C@H]2CNCCc3ccc(Cl)c1c32` [Example 8, (2aR)-9-chloro-1-methyl-2,2a,3,4,5,6-hexahydro-1H-azepino[3,4,5-cd]indole hydrochloride], the Emax worked out at 105%. For `CN1C[C@@H]2CNCCc3ccc(Cl)c1c32` [Example 9, (2aS)-9-chloro-1-methyl-2,2a,3,4,5,6-hexahydro-1H-azepino[3,4,5-cd]indole hydrochloride], the Emax worked out at 109%. On to `Cc1ccc2c3c1N(C)CC3CNCC2` (centres unmarked) [Example 10, 1,9-dimethyl-2,2a,3,4,5,6-hexahydro-1H-azepino[3,4,5-cd]indole hydrochloride], for which the Emax came to 100%. In the case of `Cc1ccc2c3c1N(C)C[C@@H]3CNCC2` [Example 11, (2aS)-1,9-dimethyl-2,2a,3,4,5,6-hexahydro-1H-azepino[3,4,5-cd]indole 0.5 sulfate], the Emax was determined as 102%. As to `Cc1ccc2c3c1N(C)C[C@H]3CNCC2` [Example 12, (2aR)-1,9-dimethyl-2,2a,3,4,5,6-hexahydro-1H-azepino[3,4,5-cd]indole 0.5 sulfate], the Emax turned out to be 102%. As for `CN1CC2CNCCc3c(Br)ccc1c32` (centres unmarked) [Example 13, 7-bromo-1-methyl-2,2a,3,4,5,6-hexahydro-1H-azepino[3,4,5-cd]indole hydrochloride], the Emax is 81%. For the compound `CN1CC2CNCCc3c(Br)cc(Br)c1c32` (centres unmarked) [Example 14, 7,9-dibromo-1-methyl-2,2a,3,4,5,6-hexahydro-1H-azepino[3,4,5-cd]indole hydrochloride], the Emax at 10 µM was 87%. As to `CC(C)N1CC2CNCCc3cccc1c32` (centres unmarked) [Example 15, 1-isopropyl-2,2a,3,4,5,6-hexahydro-1H-azepino[3,4,5-cd]indole hydrochloride], the Emax was 98%. `CC(C)N1CC2CNCCc3ccc(Cl)c1c32` (centres unmarked) [Example 16, 9-chloro-1-isopropyl-2,2a,3,4,5,6-hexahydro-1H-azepino[3,4,5-cd]indole hydrochloride]: the Emax turned out to be 101%. As to `CC(C)N1C[C@@H]2CNCCc3ccc(Cl)c1c32` [Example 17, (2aS)-9-chloro-1-isopropyl-2,2a,3,4,5,6-hexahydro-1H-azepino[3,4,5-cd]indole hydrochloride], the Emax is 99%.

With `CC(C)N1C[C@H]2CNCCc3ccc(Cl)c1c32` [Example 18, (2aR)-9-chloro-1-isopropyl-2,2a,3,4,5,6-hexahydro-1H-azepino[3,4,5-cd]indole hydrochloride], the Emax turned out to be 105%. Turning to `c1ccc(CN2CC3CNCCc4cccc2c43)cc1` (centres unmarked) [Example 19, 1-benzyl-2,2a,3,4,5,6-hexahydro-1H-azepino[3,4,5-cd]indole hydrochloride], the Emax was found to be 96%. Turning to `CC(=O)N1CC2CNCCc3cccc1c32` (centres unmarked) [Example 20, 1-(2,2a,3,4,5,6-hexahydro-1H-azepino[3,4,5-cd]indol-1-yl)ethanone hydrochloride], the Emax is 94%. Regarding `CC(=O)N1CC2CNCCc3ccc(Cl)c1c32` (centres unmarked) [Example 21, 1-(9-chloro-2,2a,3,4,5,6-hexahydro-1H-azepino[3,4,5-cd]indol-1-yl)ethanone hydrochloride], the Emax is 109%. For `CC(=O)N1CC2CNCCc3c(Cl)ccc1c32` (centres unmarked) [Example 22, 1-(7-chloro-2,2a,3,4,5,6-hexahydro-1H-azepino[3,4,5-cd]indol-1-yl)ethanone hydrochloride], the Emax is 105%. For `CC(=O)N1CC2CNCCc3c(Cl)cc(Cl)c1c32` (centres unmarked) [Example 23, 1-(7,9-dichloro-2,2a,3,4,5,6-hexahydro-1H-azepino[3,4,5-cd]indol-1-yl)ethanone], the Emax is 100%. Consider `CC(=O)N1C[C@@H]2CNCCc3ccc(Cl)c1c32` [Example 24, 1-((2aS)-9-chloro-2,2a,3,4,5,6-hexahydro-1H-azepino[3,4,5-cd]indol-1-yl)ethanone hydrochloride], for which the Emax was 96%. On to `CC(=O)N1C[C@H]2CNCCc3ccc(Cl)c1c32` [Example 25, 1-((2aR)-9-chloro-2,2a,3,4,5,6-hexahydro-1H-azepino[3,4,5-cd]indol-1-yl)ethanone hydrochloride], for which the Emax was found to be 96%. On the same count and under the same terms, for `Clc1ccc2c3c1NCC3CNCC2` (centres unmarked) [Example 26, 9-chloro-2,2a,3,4,5,6-hexahydro-1H-azepino[3,4,5-cd]indole] the value was 98%. Turning to `CCN1C[C@@H]2CNCCc3ccc(Cl)c1c32` [Example 29, (2aS)-9-chloro-1-ethyl-2,2a,3,4,5,6-hexahydro-1H-azepino[3,4,5-cd]indole hydrochloride], the Emax is 93%.

On to `Clc1ccc2c3c1N(C1CC1)C[C@@H]3CNCC2` [Example 30, (2aS)-9-chloro-1-cyclopropyl-2,2a,3,4,5,6-hexahydro-1H-azepino[3,4,5-cd]indole], for which the Emax is 94%. On the same count and under the same terms, for `c1cc2c3c(coc3c1)CNCC2` [Example 31, 3,4,5,6-tetrahydrofuro[4,3,2-ef][3]benzazepine hydrochloride] the value was 85%. In the case of `c1cc2c3c(c1)OCC3CNCC2` (centres unmarked) [Example 32, 2,2a,3,4,5,6-hexahydrofuro[4,3,2-ef][3]benzazepine hydrochloride], the Emax worked out at 97%. On to `Clc1ccc2c3c1OCC3CNCC2` (centres unmarked) [Example 33, 9-chloro-2,2a,3,4,5,6-hexahydrofuro[4,3,2-ef][3]benzazepine hydrochloride], for which the Emax is 94%. On the same count and under the same terms, for `CC(C)C(=O)N1CC2CNCCc3cccc1c32` (centres unmarked) [Example 34, 1-(2,2a,3,4,5,6-hexahydro-1H-azepino[3,4,5-cd]indol-1-yl)-2-methylpropan-1-one hydrochloride] the value was 77%; for `CC(C)C(=O)N1CC2CNCCc3c(Cl)ccc1c32` (centres unmarked) [Example 35, 1-(7-chloro-2,2a,3,4,5,6-hexahydro-1H-azepino[3,4,5-cd]indol-1-yl)-2-methylpropan-1-one hydrochloride], 99%.

Turning to `O=C(c1ccccc1)N1CC2CNCCc3cccc1c32` (centres unmarked) [Example 36, 2,2a,3,4,5,6-hexahydro-1H-azepino[3,4,5-cd]indol-1-yl(phenyl)methanone hydrochloride], the Emax turned out to be 79%. Still for that read-out and setting: with `O=C(c1ccccc1)N1CC2CNCCc3ccc(Cl)c1c32` (centres unmarked) [Example 37, (9-chloro-2,2a,3,4,5,6-hexahydro-1H-azepino[3,4,5-cd]indol-1-yl)(phenyl)methanone hydrochloride] the figure was 95%; with `O=C(c1ccccc1)N1CC2CNCCc3c(Cl)ccc1c32` (centres unmarked) [Example 38, (7-chloro-2,2a,3,4,5,6-hexahydro-1H-azepino[3,4,5-cd]indol-1-yl)(phenyl)methanone hydrochloride], 93%; with `O=C(c1ccccc1)N1CC2CNCCc3c(Cl)cc(Cl)c1c32` (centres unmarked) [Example 39, 7,9-dichloro-1-(phenylcarbonyl)-2,2a,3,4,5,6-hexahydro-1H-azepino[3,4,5-cd]indole hydrochloride], 93%. For the compound `CC(C)c1ccc2c3c1N(C)CC3CNCC2` (centres unmarked) [Example 40, 9-isopropyl-1-methyl-2,2a,3,4,5,6-hexahydro-1H-azepino[3,4,5-cd]indole], the Emax was determined as 93%.

In the case of `c1cc2c3c(csc3c1)CNCC2` [Example 41, 3,4,5,6-tetrahydrothieno[4,3,2-ef][3]benzazepine hydrochloride], the Emax was 91%. On the same count and under the same terms, with `O=S1(=O)CC2CNCCc3cccc1c32` (centres unmarked) [Example 42, 2,2a,3,4,5,6-hexahydrothieno[4,3,2-ef][3]benzazepine 1,1-dioxide hydrochloride] the figure was 102%; with `c1cc2c3c(c1)SCC3CNCC2` (centres unmarked) [Example 43, 2,2a,3,4,5,6-hexahydrothieno[4,3,2-ef][3]benzazepine hydrochloride], 107%.
